Our source for the TGI values is PubChem BioAssay (NCI).

The subject of this test is P388 leukemia. Nature of the test: NCI tumour cell line growth inhibition, 48 h.

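Step 1: Grow cells in 96-well plates. Step 2: Expose to compound for 48 hours at 5 concentrations. Step 3: Interpolate endpoints linearly; if unreached, use highest concentration. TGI: concentration producing complete growth inhibition.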

For `O=C(O)/C=C/C(=O)N1C/C(=C\c2ccccc2)C(=O)/C(=C/c2ccccc2)C1`, the TGI was 41.6 µM.
